Data taken from patent US20250282742A1, “BENZOFURAN DERIVATIVES FOR TARGETING AUTOPHAGY” (Automera PTE. LTD, priority 2024, published 2025).

Columns and labels:
[1] = target: T1, Recombinant p62 protein (Homo sapiens, UniProt Q13501); test: Surface plasmon resonance (SPR) compound binding to immobilised p62; settings: recombinant p62, 15° C
T1 construct: Recombinant p62 protein was buffer exchanged into Biacore SPR running buffer
Experimental: Example 28: Surface Plasmon Resonance (SPR) Analysis
Recombinant p62 protein was buffer exchanged into Biacore SPR running buffer (Cytiva 100671) using the Slide-A-Lyzer Mini Dialysis system 7K MWCO (Thermo Fisher Scientific, Cat no. 69560). The final protein concentration was determined using the Nanodrop One spectrophotometer (Thermo Fisher Scientific, cat no. ND-ONE-W), with calibration for the dialysis buffer.
The prepared protein was diluted in sodium acetate buffer (NaAc, pH 5.5, Cytiva) to concentrations ranging from approximately 0.25-40 μg/mL. Post-immobilization, the protein required approximately 16 hours of equilibration in running buffer supplemented with 1% DMSO at 15° C. to ensure adequate surface equilibration and protein reorganization.
All SPR experiments were conducted at a constant temperature of 15° C. The SPR chip surface was activated using EDC/NHS for a contact time of 6-10 min at a flow rate of 10 μL/min. This was followed by protein immobilization for 2100 seconds and ethanolamine capping for 420 seconds, both at the same flow rate. Immediately after immobilization, the NH2—REEE peptide was analyzed in Single Cycle Kinetics mode (SCK) to verify surface activity, ensuring it binds the sample with the published affinity (−20 μM by SPR).
For general compound binding studies, experiments were performed at 15° C. using a running buffer composed of 10 mM HEPES, 150 mM NaCl, 1 mM DTT, 0.05% Tween 20, and 1% DMSO at pH 7.4. The test compound was initially prepared at a 20 mM concentration in DMSO and subsequently titrated in 2-fold dilutions. For each assay, 2 μL of the compound was mixed with 198 μL of the running buffer, and the mixture was thoroughly pipetted approximately 15 times for homogenization.
A series of blank injections (0 μM concentration) were included for double referencing, with at least 8 or 16 per plate depending on the format. Typical injection parameters were 120 seconds for association and 180 seconds for dissociation at a flow rate of […]. A four-point solvent correction was prepared with DMSO concentrations ranging from 2% to 0.5% in the buffer. Post each compound injection, the system's needles were washed with 50% DMSO.
Analysis of the SPR data was conducted using the Cytiva Evaluation software. The binding levels at the late time-point of each interaction were corrected for reference, then normalized to percentage bound values to account for variations in immobilization levels, protein molecular weight, and compound molecular weight.
Compound binding studies were carried out according to experimental procedures above and SPR % occupancy was determined and summarized in Table 7.

[2] = system: p62 puncta in HeLa cells; test: p62 puncta assay (immunocytochemistry and imaging, EVOS M7000 or Operetta CLS); type: cell-based; settings: Homo sapiens, fold change in p62 puncta levels relative to DMSO control, 24 hr
Experimental: HeLa cells were seeded in coated 96-well plates (10,000 cells) and allowed to adhere overnight. After 24 hours of treatment with either vehicle (DMSO) or test compounds, the media was discarded, and cells were rinsed with ice-cold 1×PBS before fixation by 4% formaldehyde or paraformaldehyde for 20 min. Cells were then washed with 1×PBS and permeabilized with 0.1% Triton X-100 in PBS for 20 min and blocked with Blocking Buffer in PBS for 1 hour. The cells were incubated thereafter for 1 hour with anti-p62 primary antibody in Blocking Buffer, followed by incubation with secondary antibody for 1 hour. DAPI dye was used to visualize nuclei of fixed cells. The blocking buffer used were 5% Fetal Bovine Serum (FBS, ThermoFIsher Scientific, 10270106) and Li-cor Intercept (PBS) Blocking Buffer (Li-cor, 927-70001). The primary antibody used was mouse anti-p62 primary antibody (Novus Biologicals, H00008878-MO1). The secondary antibodies used were goat anti-mouse Alexa Fluor Plus 488 secondary antibody (Invitrogen, GOXMS) and goat anti-mouse Alexa Fluor 488 secondary antibody (Invitrogen, A-11029). The DAPI dyes used were DAPI dye (Invitrogen, 62248) and DAPI dye (Invitrogen, D1306).
For the EVOS M7000 System, cells were imaged on the EVOS M7000 microscope using a 20× air objective (Nikon, N.A 0.45). DAPI and p62 channels were illuminated with LED light cubes using integrated hard-coated filter sets for DAPI (357/447 nm) and GFP (470/525 nm) respectively. Images were analysed for p62 puncta count on the Celeste 6.0 software.
For the Operetta CLS System, cells were imaged on the Operetta CLS using a 63× water objective on the DAPI and Alexa 488 channels. Images were analysed for p62 puncta count on the Harmony 5.1 software.
HeLa cells were treated with compounds for 24 hours to evaluate the effect of these compounds on p62 puncta activity. The resulting changes in levels of p62 puncta were assessed by imaging, either on the EVOS M7000 or Operetta CLS systems as described in experimental procedures. The fold change of p62 puncta levels induced by compound treatment relative to vehicle control (DMSO) was determined and summarized in Table 10.

T1 sequence (Q13501 whole entry, species assumed): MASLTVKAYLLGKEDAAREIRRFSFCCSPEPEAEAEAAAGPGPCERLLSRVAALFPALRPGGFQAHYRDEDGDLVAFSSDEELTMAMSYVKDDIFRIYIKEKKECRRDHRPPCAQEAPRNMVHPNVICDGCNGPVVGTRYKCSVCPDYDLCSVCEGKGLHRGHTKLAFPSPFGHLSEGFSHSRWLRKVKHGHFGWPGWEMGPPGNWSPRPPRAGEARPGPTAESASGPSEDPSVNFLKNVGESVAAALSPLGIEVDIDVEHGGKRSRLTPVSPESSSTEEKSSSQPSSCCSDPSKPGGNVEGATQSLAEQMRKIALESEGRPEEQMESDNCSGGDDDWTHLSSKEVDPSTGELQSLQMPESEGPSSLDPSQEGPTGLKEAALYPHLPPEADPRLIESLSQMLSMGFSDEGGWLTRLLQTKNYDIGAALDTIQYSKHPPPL

| SMILES | receptor occupancy at 100 µM [1] [%] | fold induction at 5 µM [2] |
| --- | --- | --- |
| O=C(c1cc2ccc(CNCCO)cc2o1)N1CCCCC1 [Compound 34, (6-(((2-hydroxyethyl)amino)methyl)benzofuran-2-yl)(piperidin-1-yl)methanone] | < 30 | – |
| OCCNCc1ccc2cc(Cc3c[nH]cn3)oc2c1 [compound 23] | < 30 | – |
| OCCNCc1ccc2cc(CNC3CCOCC3)oc2c1 [compound 32] | < 30 | – |
| CC(C)(C)OC(=O)NCC1CC(COCCNCc2ccc3cc(CCc4ccc(F)cc4)oc3c2)C1 (stereo not drawn) [compound 163] | – | > 2 |
| C#Cc1ccc(COCCNCc2ccc3cc(CCc4ccc(F)cc4)oc3c2)cc1 [compound 164] | – | > 2 |
| CC(C)(C)OC(=O)N1CCC(COCCOCCNCc2ccc3cc(CCc4ccc(F)cc4)oc3c2)CC1 [compound 165] | – | > 2 |
| CC(C)(C)OC(=O)NC1CCN(CCOCCNCc2ccc3cc(CCc4ccc(F)cc4)oc3c2)CC1 [compound 166] | – | > 2 |
| CC(C)(C)OC(=O)NC[C@H]1CC[C@H](COCCNCc2ccc3cc(CCc4ccc(F)cc4)oc3c2)CC1 [compound 167] | – | > 2 |
| CC(C)(C)OC(=O)N[C@H]1CC[C@H](COCCNCc2ccc3cc(CCc4ccc(F)cc4)oc3c2)CC1 [compound 168] | – | > 2 |

Further lines, with some results ahead:

| receptor occupancy at 100 µM [1] [%] | SMILES | fold induction at 5 µM [2] |
| --- | --- | --- |
| < 30 | O=C(NCCO)c1ccc2cc(Cc3ccccc3)oc2c1 [Compound 6, 2-benzyl-N-(2-hydroxyethyl)benzofuran-6-carboxamide] | – |
| < 30 | O=C(CCO)Nc1ccc2cc(Cc3ccccc3)oc2c1 [Compound 11, N-(2-benzylbenzofuran-6-yl)-3-hydroxypropanamide] | – |
| 30 to 70 | OCCNCc1ccc2cc(Cc3ccncc3)oc2c1 [Compound 16, 2-(((2-(pyridin-4-ylmethyl)benzofuran-6-yl)methyl)amino)ethan-1-ol] | – |
| 30 to 70 | O=S(=O)(c1ccccc1)c1cc2ccc(CNCCO)cc2o1 [Compound 18, 2-(((2-(phenylsulfonyl)benzofuran-6-yl)methyl)amino)ethan-1-ol] | – |
| 30 to 70 | O=S(=O)(Nc1ccccc1)c1cc2ccc(CNCCO)cc2o1 [Compound 19, 6-(((2-hydroxyethyl)amino)methyl)-N-phenylbenzofuran-2-sulfonamide] | – |
| < 30 | CN(C)C(=O)Cc1cc2ccc(CNCCO)cc2o1 [Compound 29, 2-(6-(((2-hydroxyethyl)amino)methyl)benzofuran-2-yl)-N,N-dimethylacetamide] | – |
| 30 to 70 | OCCNCc1cc2oc(Cc3ccccc3)cc2cc1F [Compound 36, 2-(((2-benzyl-5-fluorobenzofuran-6-yl)methyl)amino)ethan-1-ol] | – |
| 30 to 70 | OCCNCc1ccc2cc(Cc3ccccc3)oc2c1F [Compound 38, 2-(((2-benzyl-7-fluorobenzofuran-6-yl)methyl)amino)ethan-1-ol] | – |
| 30 to 70 | OCCNCc1cccc2oc(Cc3ccccc3)cc12 [compound 4] | – |
| < 30 | OCCNCc1ccc2cc(CN3CCCC(O)C3)oc2c1 (stereo not drawn) [compound 28] | – |
| 30 to 70 | OCCNCc1ccc2oc(Cc3ccccc3)cc2c1 [compound 45] | < 2 |
| < 30 | OCCNCc1ccc2nc(Cc3ccccc3)oc2c1 [compound 47, 2-(((2-benzylbenzo[d]oxazol-6-yl)methyl)amino)ethan-1-ol] | – |
| 30 to 70 | OCCNCc1ccc2nc(Cc3ccccc3)sc2c1 [compound 48, 2-(((2-benzylbenzo[d]thiazol-6-yl)methyl)amino)ethan-1-ol] | – |
| < 30 | O=C(NCCO)c1ccc2cc(CCc3ccc(F)cc3)oc2c1 [compound 50, 2-(4-fluorophenethyl)-N-(2-hydroxyethyl)benzofuran-6-carboxamide] | – |
